Assay results taken from patent publication EP2249889B1, “CRYSTALLINE SURGICAL IMPLANT COMPOSITE MATERIALS AND KITS AND METHODS OF MANUFACTURE” (Sandvik Intellectual Property AB, priority 2008, dated 2009).
Converted amounts (≈) assume the structure as drawn.

Legend:
[1] = system: Staphylococcus aureus strain Cowan I; assay: Inhibition zones of bacterial growth in bacteria agar around antibiotic loaded HA coated plates; assay type: cell-based; settings: loading 15 minutes to 24 hours; release in PBS 15 minutes to 24 hours before agar; incubated 37°C 18 hours
Experimental: The incorporation of antibiotics was preformed by soaking the HA coated plates in 10 ml PBS containing 50 µg of either Tobramycin, Cephalotin, Amoxicillin or Gentamicin sulfate (Sigma-Aldrich Company Ltd.). The drug loading was performed at room temperature in 50 ml conical test tubes for four different soaking times between 15 minutes and 24 hours.
After incorporation of antibiotics, the plates were immediately transferred to new tubes filled with 40 ml of PBS preheated to 37°C in order to let the incorporated drug leak out for various time intervals before monitoring the antibacterial effect of the drug remaining in the coatings. After either 15 minutes, 60 minutes or 24 hours, the plates were removed and dried at room temperature for further analysis of the remaining antibacterial effect in the Staphylococcus aureus agar described below.
A Mueller-Hinton broth (Merck) containing 0.8% Agar was prepared by dissolving the powder in de-ionized water and sterilized by autoclaving at 121°C for 20 minutes. The broth was then tempered to 40°C in a water bath. Staphylococcus aureus strain Cowan I (NCTC 8530, National Collection of Type Cultures, London, UK) in a PBS suspension was added directly to the broth giving it a final optical density at 600 nm of 0.005 (corresponding to approximately 5x10^6 cfu/ml). The mixture was mixed to homogenously distribute the bacteria in the substrate and then transferred to Petri dishes. The dishes were filled to a depth of 10 mm (50 ml) with the bacterial broth. As the agar stiffened at room temperature, the titanium plates were stuck down in the agar at a right angle to the surface, having both sides in contact with the bacterial substrate. The Petri dishes were then incubated at 37°C for 18 hours. A HA coated reference plate without any antibiotics was also tested. The inhibition zones of bacterial growth formed around the plates were photographed by an imaging instrument (Geldoc 2000, Bio-Rad).

[2] = assay type: physicochemical; settings: for anticipated release time: assuming constant release rate until coatings are emptied, including the 22 hours of release before hydrochloric acid treatment; for drug release rate: from HA coating in PBS at room temperature, between 2 and 22 hours after start; for duration of initial rapid drug release (burst): from HA coatings, loading times 15 minutes, 1 hour, 24 hours
Experimental: The drug loading was performed at room temperature in 50 ml conical test tubes for four different soaking times between 15 minutes and 24 hours. […] The liquid was circulated through a cell in which the drug concentration was detected. After the release in PBS, the HA coatings soaked for 24 hours in the antibiotic solutions were dissolved by lowering the pH of the PBS to 2 by addition of hydrochloric acid. This was done to release and measure the amount of remaining drugs still present in the coatings after 22 hours of release. To relate the antibiotics concentration released to the antibacterial effect, antimicrobial susceptibility tests (E-test, AB Biodisk, Sweden) for Amoxicillin and Cephalothin was performed on strain S aureus Cowan I and on Staphylococcus epidermidis Kx293A1 (Department of Microbiology, Swedish University of Agricultural Sciences).

S aureus Cowan I = assay: E-test antimicrobial susceptibility test (MIC); assay type: cell-based; settings: Staphylococcus aureus, inhibiting bacteria in 1 ml broth
Experimental: (§1) The drug release rate was analyzed using UV spectroscopy (Shimadzu 1650PC, Shimadzu Corp.) by immersing plates that had been soaked in Amoxicillin and Cephalothin for 15 minutes, 1 hour and 24 hours in 8.2 ml of either water or PBS at room temperature. The release was measured (using a wavelength Of 230 nm for Amoxicillin and 239 nm for Cephalothin) in water for 1 hour to investigate the initial release and then in PBS for 22 hours to investigate the slow release after the initial burst. The liquid was circulated through a cell in which the drug concentration was detected. After the release in PBS, the HA coatings soaked for 24 hours in the antibiotic solutions were dissolved by lowering the pH of the PBS to 2 by addition of hydrochloric acid. This was done to release and measure the amount of remaining drugs still present in the coatings after 22 hours of release. To relate the antibiotics concentration released to the antibacterial effect, antimicrobial susceptibility tests (E-test, AB Biodisk, Sweden) for Amoxicillin and Cephalothin was performed on strain S aureus Cowan I and on Staphylococcus epidermidis Kx293A1 (Department of Microbiology, Swedish University of Agricultural Sciences).
(§2) Table 1 presents the concentration of Amoxicillin and Cephalothin that has to be present to ensure killing of S. aureus and S. epidermidis, as divulged from the antimicrobial susceptibility tests. Table 1: Result from E-test for antimicrobial susceptibility testing, determining the minimum inhibitory concentration (MIC) of antimicrobial agents against microorganisms (inhibiting bacteria in 1 ml broth).

[3] = system: Staphylococcus epidermidis Kx293A1; assay: E-test antimicrobial susceptibility test (MIC); assay type: cell-based; settings: inhibiting bacteria in 1 ml broth
Experimental: as §1, §2

[4] = Release and content of Amoxicillin from HA coatings loaded with pamidronate and Amoxicillin (methods of Examples 8 and 9); assay type: physicochemical

Compound | antibacterial effect (inhibition zone, clear agar closest to the plates) [1] | anticipated release time [2] | drug release rate [2] | duration of initial rapid drug release (burst) [2] | MIC (S aureus Cowan I) | MIC [3] | time for which a therapeutically significant dose of amoxicillin was released ([4]; Example 10: co-loading, 10 ml PBS, 6 mg pamidronate disodium salt hydrate, 100 µg Amoxicillin, 50 °C, 25 minutes, rinsed 5 minutes in PBS) | time for which a therapeutically significant dose of amoxicillin was released ([4]; Example 11: sequential loading, 7 mg pamidronate 40°C 12 minutes, then 70 µg Amoxicillin 40°C 15 minutes, soaked in PBS 7 minutes) | amount of antibiotics remaining in the coating after 22 hours of release ([2]; buffer)
CC1(C)S[C@@H]2[C@H](NC(=O)[C@H](N)c3ccc(O)cc3)C(=O)N2[C@H]1C(=O)O [Amoxicillin] | the antibiotic effect was preserved | 27 h | 0.42±0.10 µg/h·cm^2 | less than 10 minutes | 0.064 µg/mL (≈ 0.175 µM) | 0.19 µg/mL (≈ 0.52 µM) | 7 days | 6 days | 
CC(=O)OCC1=C(C(=O)O)N2C(=O)[C@@H](NC(=O)Cc3cccs3)[C@H]2SC1 [Cephalothin] | the antibiotic effect was preserved | 63 h | 0.22±0.06 µg/h·cm^2 | less than 10 minutes | 0.064 µg/mL (≈ 0.161 µM) | 0.064 µg/mL (≈ 0.161 µM) |  |  | ~ 18 µg
NC[C@H]1O[C@H](O[C@H]2[C@H](O)[C@@H](O[C@H]3O[C@H](CO)[C@@H](O)[C@H](N)[C@H]3O)[C@H](N)C[C@@H]2N)[C@H](N)C[C@@H]1O [Tobramycin] | the antibiotic effect was preserved |  |  |  |  |  |  |  | 
Gentamicin sulfate | the antibiotic effect was preserved |  |  |  |  |  |  |  | 
